Data taken from US11774455B2, “Peptide aptamer for specific recognition of arginine and its application” (INSTITUTE OF SUBTROPICAL AGRICULTURE, CHINESE ACADEMY OF …, priority 2019, dated 2023).

Tests used:
[1] = Binding verification by isothermal titration calorimeter with L-arginine; details: ITC; 10 μM peptide aptamer titrated into 1 μM L-arginine, 10 mM PBS, pH 7.4, 37° C.; read-out: binding parameter Kd value
Method: In the present invention, a primary sequence of an L-arginine sensing protein which can be recognized with L-arginine is obtained by searching for the L-arginine sensing proteins and transporters from a protein library, followed by cutting the primary sequence of the L-arginine sensing protein into 8 amino acid residues to obtain a peptide library and removing repeated peptide sequences from the peptide library. Next, a molecular simulation is performed on the peptides in the deduplicated peptide library and L-arginine to obtain a peptide aptamer library that can specifically bind to the arginine, and preferably, the peptide aptamer library is selected for experimental verification. Then, a binding verification is carried out on the peptide aptamer library and the arginine by an isothermal titration calorimeter. A verification method is as follows: 1 μM of the L-arginine is titrated with 10 μM of the peptide aptamer, a solvent and a binding buffer is 10 mM PBS buffer, pH is 7.4, and a binding temperature is 37° C., and the peptide aptamer that can specifically bind to the L-arginine can be determined.
Molecular simulation and binding verification of a peptide aptamer with L-arginine • A) Molecular simulation of the peptide aptamer and the L-arginine: AutoDock is used to place the L-arginine on the active site of the peptide aptamer, and its binding mode is predicted. […]

[2] = Isothermal titration calorimeter binding to other amino acids; details: amino acids having a similar structure to L-arginine

**Q.** With FGHIHEGY [peptide aptamer] as the sequence, how does the Kd [1] read?
**A.** 13.3 µM

**Q.** And the “binding ability to other amino acids (ITC)” value [2]?
**A.** no or very weak binding ability
